Each structure is given as a SMILES string.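 Values below derive from 48-hour exposures of cells grown in 96-well plates, with endpoints linearly interpolated between the two concentrations bracketing the appropriate inhibition level. TGI is the concentration that stops growth completely.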

Some test systems named below: 786-0 renal; ACHN renal; COLO 205 colon; HCC-2998 colon; HCT-116 colon; HOP-92 NSCLC; HT29 colon; M14 melanoma; MDA-N; OVCAR-3 ovarian; MOLT-4 leukemia; SK-MEL-2 melanoma.
Common to all, as to test: NCI tumour cell line growth inhibition, 48 h

Regarding `CC1(CF)SCc2nc3ccccc3n21` (stereo not drawn), the TGI in the assay on 786-0 renal, with ACHN renal, in the assay on COLO 205 colon, in the assay with HCC-2998 colon, in the assay on HCT-116 colon and in the assay on HOP-92 NSCLC was > 100 µM each time. Also, the TGI in the assay with HT29 colon, in the assay with M14 melanoma, in the assay on MDA-N and in the assay on OVCAR-3 ovarian was > 100 µM each time.
Turning to `C1CCC2C(C1)CCCC2NC1=NCCO1` (stereo not drawn), the TGI in the assay with 786-0 renal, in the assay on ACHN renal, in the assay with COLO 205 colon, in the assay on HCC-2998 colon, in the assay with HCT-116 colon and with HT29 colon was > 100 µM throughout. The TGI in the assay with M14 melanoma, in the assay on MDA-N, with MOLT-4 leukemia, with OVCAR-3 ovarian and in the assay with SK-MEL-2 melanoma was > 100 µM throughout.
As for `COC(=O)[C@H](Cc1ccccc1)NC(=O)[C@H](Cc1ccccc1)NC(=O)[C@@H]1CCCN1C(=O)N[C@H]1C2C=CC(C2)C1C(=O)N1CCC[C@H]1C(=O)N[C@@H](C)C(=O)N[C@H](C(=O)OC)C(C)C` (stereo partly drawn), the TGI in the assay with 786-0 renal, in the assay on ACHN renal, in the assay on COLO 205 colon, with HCT-116 colon, with HOP-92 NSCLC and in the assay with HT29 colon was > 100 µM each time. The TGI with M14 melanoma is > 100 µM; in the assay on MDA-N it was > 100 µM; in the assay with MOLT-4 leukemia, 85.6 µM; in the assay with OVCAR-3 ovarian it was > 100 µM.
On to `NC(=O)NNC(=O)c1nc[nH]c1[N+](=O)[O-]`, for which the TGI in the assay on 786-0 renal, with COLO 205 colon, with HCC-2998 colon, in the assay on HCT-116 colon, in the assay with HT29 colon and in the assay with M14 melanoma was > 100 µM throughout. The TGI in the assay with MDA-N, with MOLT-4 leukemia, in the assay with OVCAR-3 ovarian and in the assay on SK-MEL-2 melanoma was > 100 µM each time.
With `O=C1NC(N/N=C/C(O)C(O)C(O)CO)=N/C1=C\c1ccco1` (stereo not drawn), the TGI with 786-0 renal, in the assay with ACHN renal, with COLO 205 colon, with HCC-2998 colon, in the assay on HCT-116 colon and with HOP-92 NSCLC was > 100 µM each time. In addition, the TGI in the assay on HT29 colon, in the assay on M14 melanoma, in the assay on MDA-N, with MOLT-4 leukemia and in the assay on OVCAR-3 ovarian was > 100 µM throughout.
Consider `CN(C)Cc1cc(C(=O)/C=C/c2ccccc2Cl)cc(CN(C)C)c1O`, for which the TGI in the assay with 786-0 renal was found to be 21.4 µM; in the assay with ACHN renal, 16.3 µM; in the assay with COLO 205 colon, 18.5 µM; in the assay with HCC-2998 colon, 36.6 µM; in the assay on HCT-116 colon it was 19.8 µM; with HOP-92 NSCLC, 39.6 µM. The TGI in the assay with HT29 colon is 9.94 µM; with M14 melanoma it was 23.3 µM; in the assay with MDA-N, 34.1 µM; in the assay with MOLT-4 leukemia it was 59.8 µM; in the assay on OVCAR-3 ovarian it was 30.5 µM.
For the molecule `COC(=O)C1=C2SCc3cccc(c3)CSC3=C(C(=O)OC)SC(=C(S2)S1)S3`, the TGI in the assay on 786-0 renal, in the assay on ACHN renal, in the assay with COLO 205 colon, with HCC-2998 colon, in the assay on HCT-116 colon and in the assay on M14 melanoma was > 100 µM in each case. In addition, the TGI in the assay with MDA-N, with MOLT-4 leukemia, in the assay with OVCAR-3 ovarian and in the assay on SK-MEL-2 melanoma was > 100 µM in each case.
For the molecule `Cc1cc(C2(O)C=C(C(C)(C)C)C(=O)C(C(C)(C)C)=C2)c(C)cc1C1(O)C=C(C(C)(C)C)C(=O)C(C(C)(C)C)=C1`, the TGI with 786-0 renal, in the assay with ACHN renal, in the assay on COLO 205 colon, in the assay with HCT-116 colon, with HT29 colon and in the assay with M14 melanoma was > 100 µM each time. Moreover, the TGI with MDA-N, with MOLT-4 leukemia and in the assay on SK-MEL-2 melanoma was > 100 µM each time.
`NCCN=C(Nc1ccccc1)Nc1ccccc1`: the TGI in the assay with 786-0 renal, with COLO 205 colon, with HCC-2998 colon, in the assay on HCT-116 colon, in the assay on HT29 colon and with M14 melanoma was > 100 µM in each case. Further, the TGI in the assay on MDA-N, in the assay with MOLT-4 leukemia, with OVCAR-3 ovarian and with SK-MEL-2 melanoma was > 100 µM each time.
`O=C(O)c1ccc(S(=O)(=O)c2ccccc2[N+](=O)[O-])cc1`: the TGI in the assay with 786-0 renal, in the assay on ACHN renal, with COLO 205 colon, in the assay on HCC-2998 colon, in the assay with HCT-116 colon and with HT29 colon was > 10 µM each time. Also, the TGI with M14 melanoma, with MDA-N, in the assay on MOLT-4 leukemia, with OVCAR-3 ovarian and in the assay on SK-MEL-2 melanoma was > 10 µM in each case.

The values above are taken from PubChem BioAssay (NCI).
